Measured values reported in patent US7928097B2, “Photoreactive compounds and compositions” (priority 2001, dated 2011).
Where two headings read alike, the source gives them in different places.

What was measured:
[1] = tested on: polynucleotide having the sequence ATACATGGTACATA; assay: Photoactivation and binding to 14mer polynucleotide; settings: 1 mM ATACATGGTACATA, blue light as example 9; NMR
Experimental: The procedure of example 9 was repeated with a 1 mM solution of a polynucleotide having the sequence ATACATGGTACATA, and using the compound obtained in example 2 in place of that obtained in example 1.

[2] = tested on: HaCaT; assay: Phototoxicity, neutral red dye uptake, HaCaT cells; format: cell-based
Experimental: (§1) 2×6 ft Cosmolux RA Plus (Cosmedico), 15500/100 W light sources were used, each filtered to attenuate UVB/UVC wavelengths. Irradiance was measured with a Waldmann PUMA meter, calibrated to the source using a double grating Spectroradiometer (Bentham, UK).
(§2) Immediately before use, the compounds were dissolved in warm Earle's Balanced Salt Solution (EBSS), sonicated and vortexed to assist dissolution. For experiments, cells were seeded at densities of 3- or 5×10^4 cells/cm^2. After overnight incubation, washed cells were incubated with test compounds in EBSS for 1 h at 310 K/5% CO2. Cells were then irradiated with 5 J cm^−2 glass filtered UVA (1.77 mW cm^−2: λmax 365 nm) for 50 min. Test compounds were removed and cells either prepared immediately for photogenotoxicity assays, or incubated with complete medium for 24 h before assessing phototoxicity. Control plates were treated identically to the test plates and sham irradiated.
(§3) Phototoxicity was monitored by measuring the uptake of neutral red dye into viable cells. Briefly, after irradiation cells were washed and then incubated with DMEM containing 5% FCS, 1% NEAA and 50 μg ml^−1 neutral red dye for 3 h at 310 K/5% CO2. After this time, cells were rapidly washed with formaldehyde containing 1% (w/v) CaCl2, and solubilised in 50% EtOH containing 1% acetic acid. Absorbance was read at 540 nm against a solubilisation solution as blank. The IC50 value was defined as the concentration of compound that inhibited dye uptake by 50% and was calculated using non-linear regression (Graphpad Prism). Goodness of fit was determined from the R^2 values of the curves and 95% confidence intervals.

[3] = tested on: A2780CIS; assay: Phototoxicity, neutral red dye uptake, A2780CIS cells; format: cell-based
Experimental: as §1, §2, §3

[4] = tested on: A2780; assay: Phototoxicity, neutral red dye uptake, A2780 cells; format: cell-based
Experimental: as §1, §2, §3

[5] = dark, sham irradiated control, read-out: IC50 Value HaCaT Dark
[6] = irradiated 5 J cm^-2 UVA, λmax 365 nm, 50 min, neutral red uptake after 24 h, read-out: IC50 Value HaCaT 365 nm
[7] = dark, sham irradiated control, read-out: IC50 Value A2780CIS Dark
[8] = irradiated 5 J cm^-2 UVA, λmax 365 nm, 50 min, neutral red uptake after 24 h, read-out: IC50 Value A2780CIS 365 nm
[9] = dark, sham irradiated control, read-out: IC50 Value A2780 Dark
[10] = irradiated 5 J cm^-2 UVA, λmax 365 nm, 50 min, neutral red uptake after 24 h, read-out: IC50 Value A2780 365 nm

Substance	Binding to 14mer polynucleotide after photoactivation [1]	IC50 [2, 5]	IC50 [2, 6]	IC50 [3, 7]	IC50 [3, 8]	IC50 [4, 9]	IC50 [4, 10]
Cis,trans-[Pt^IV(en)(N3)2(OH)2] [Example 2]	binding of species containing the cis-[PtII(en)] moiety to the GG moiety had taken place	–	–	–	–	–	–
Trans,trans,trans-[Pt(N3)2(OH)2(NH3)(2-pic)] [FM171]	–	> 236 µM	55.3 µM	> 236 µM	59.8 µM	> 236 µM	51 µM
Trans,trans,trans-[Pt(N3)2(OH)2(NH3)(4-pic)] [FM174]	–	98.8 µM	6.5 µM	–	–	–	–
Trans,trans,trans-[Pt(N3)2(OH)2(NH3)(py)] [FM165]	–	> 244 µM	6.1 µM	> 244 µM	16.9 µM	> 244 µM	1.9 µM
Trans,trans,trans-[Pt(N3)2(OH)2(NH3)(tz)] [FM172]	–	> 241 µM	5.8 µM	> 241 µM	16.1 µM	187 µM	5.4 µM
